Experiments:
[1] = system: Blumeria graminis f. sp. tritici (Erysiphe graminis f. sp. tritici); test: Blumeria graminis f. sp. tritici / wheat / leaf disc preventative (powdery mildew on wheat); type: in vivo; conditions: foliar, wheat leaf segments cv. Kanzler, inoculated 1 day after application, assessed 6-8 days after application, read-out: control of Blumeria graminis f. sp. tritici (percent disease control compared to untreated)
How it was run: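 Wheat cv. Kanzler leaf segments on agar were sprayed with formulated compound in water, then inoculated with powdery mildew 1 day after application. Incubation was at 20° C, 60% rh, 24 h dark then 12 h light/12 h dark. Percent disease control versus untreated was scored 6-8 days after application.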

[2] = system: Puccinia recondita f. sp. tritici; test: Puccinia recondita f. sp. tritici / wheat / leaf disc curative (brown rust); type: in vivo; conditions: foliar, wheat leaf segments cv. Kanzler, compound applied 1 day after inoculation, assessed 6-8 days after application, read-out: control of Puccinia recondita f. sp. tritici (percent disease control compared to untreated)
How it was run: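 Curative test: leaf segments of wheat cv. Kanzler on agar were inoculated with spores and held dark at 19 °C, 75% rh; formulated compound in water was applied 1 day after inoculation. Segments were then kept at 19 °C, 75% rh under 12 h light/12 h dark, and percent disease control versus untreated was scored 6-8 days after application.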

[3] = system: Puccinia recondita f. sp. tritici; test: Puccinia recondita f. sp. tritici / wheat / leaf disc preventative (brown rust); type: in vivo; conditions: foliar, wheat leaf segments cv. Kanzler, inoculated 1 day after application, assessed 7-9 days after application, read-out: control of Puccinia recondita f. sp. tritici (percent disease control compared to untreated)
How it was run: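 Leaf segments of wheat cv. Kanzler on agar were sprayed with diluted formulated compound and inoculated with spores 1 day later. Kept at 19° C, 75% rh, 12 h light/12 h dark. Percent disease control versus untreated assessed 7-9 days after application.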

Phakopsora pachyrhizi = Phakopsora pachyrhizi / soybean / preventative (soybean rust); type: in vivo; conditions: foliar, soybean leaf disks, inoculated one day after application, assessed 12-14 days after application, read-out: control of Phakopsora pachyrhizi (percent disease control compared to untreated)
Protocol: Phakopsora pachyrhizi/Soybean/Preventative (Soybean Rust) Soybean leaf disks are placed on water agar in multiwell plates (24-well format) and sprayed with the formulated test compound diluted in water. One day after application leaf discs are inoculated by spraying a spore suspension on the lower leaf surface. After an incubation period in a climate cabinet of 24-36 hours in darkness at 20° C. and 75% rh leaf disc are kept at 20° C. with 12 h light/day and 75% rh. The activity of a compound is assessed as percent disease control compared to untreated when an appropriate level of disease damage appears in untreated check leaf disks (12-14 days after application).

With `CCN(C)/C=N/c1cc(OC)c(C(O)(CS(=O)(=O)c2ccccc2)C(F)(F)F)cc1C` (centres unmarked) [E.065, N′-[4-[1-(benzenesulfonylmethyl)-2,2,2-trifluoro-1-hydroxy-ethyl]-5-methoxy-2-methyl-phenyl]-N-ethyl-N-methyl-formamidine] as the compound, how does the pest or weed control at 200 ppm [1] read?
The pest or weed control at 200 ppm was at least 80%.

And the pest or weed control at 200 ppm [2]?
The pest or weed control at 200 ppm was at least 80%.

And the pest or weed control at 200 ppm [3]?
Its pest or weed control at 200 ppm is at least 80%.

What about the melting point of the same compound?
The melting point was 103 to 105 °C.

For `CCN(C)/C=N/c1cc(OC)c(C(O)(CS(=O)(=O)Cc2ccccc2)C(F)(F)F)cc1C` (centres unmarked) [E.064, N′-[4-[1-(benzylsulfonylmethyl)-2,2,2-trifluoro-1-hydroxy-ethyl]-5-methoxy-2-methyl-phenyl]-N-ethyl-N-methyl-formamidine], which pest or weed control at 200 ppm [1] is on record?
The pest or weed control at 200 ppm was at least 80%.

What about the pest or weed control at 200 ppm [2] of the same compound?
Its pest or weed control at 200 ppm is at least 80%.

What about the pest or weed control at 200 ppm [3] of the same compound?
Its pest or weed control at 200 ppm is at least 80%.

What about the melting point of the same compound?
Its melting point is 56 to 58 °C.

Which results are given for `CCN(C)/C=N/c1cc(OC)c(C(O)(C(F)(F)F)C(C)(C)C#N)cc1C` (centres unmarked) [E.060, N′-[4-[2-cyano-1-hydroxy-2-methyl-1-(trifluoromethyl)propyl]-5-methoxy-2-methyl-phenyl]-N-ethyl-N-methyl-formamidine]?
pest or weed control at 200 ppm [1]: ≥ 80%; pest or weed control at 200 ppm (Phakopsora pachyrhizi): ≥ 80%; pest or weed control at 200 ppm [2]: ≥ 80%; pest or weed control at 200 ppm [3]: ≥ 80%; melting point: 90 to 93 °C

Which pest or weed control at 200 ppm [1] does the source give for `CCN(C)/C=N/c1cc(OC)c(C(O)(CC#N)C(F)(F)F)cc1C` (centres unmarked) [E.061, N′-[4-[1-(cyanomethyl)-2,2,2-trifluoro-1-hydroxy-ethyl]-5-methoxy-2-methyl-phenyl]-N-ethyl-N-methyl-formamidine] here?
The pest or weed control at 200 ppm was at least 80%.

What about the pest or weed control at 200 ppm [2] of the same compound?
The pest or weed control at 200 ppm was at least 80%.

What about the pest or weed control at 200 ppm [3] of the same compound?
The pest or weed control at 200 ppm was at least 80%.

What about the melting point of the same compound?
The melting point was 86 to 88 °C.

What does the source list for `CCN(C)/C=N/c1cc(OC)c(C(O)(CON=C(C)C)C(F)(F)F)cc1C` (centres unmarked) [E.036, N-ethyl-N′-[5-methoxy-2-methyl-4-[2,2,2-trifluoro-1-hydroxy-1-[(isopropylideneamino)oxymethyl]ethyl]phenyl]-N-methyl-formamidine]?
pest or weed control at 200 ppm [1]: ≥ 80%; pest or weed control at 200 ppm (Phakopsora pachyrhizi): ≥ 80%; pest or weed control at 200 ppm [2]: ≥ 80%; pest or weed control at 200 ppm [3]: ≥ 80%

With `CCOC1CCC(C(O)(c2cc(C)c(/N=C/N(C)CC)cc2OC)C(F)(F)F)CC1` (centres unmarked) [E.080, N′-[4-[1-(4-ethoxycyclohexyl)-2,2,2-trifluoro-1-hydroxy-ethyl]-5-methoxy-2-methyl-phenyl]-N-ethyl-N-methyl-formamidine] as the compound, how does the pest or weed control at 200 ppm [1] read?
The pest or weed control at 200 ppm was at least 80%.

What about the pest or weed control at 200 ppm (Phakopsora pachyrhizi) of the same compound?
Its pest or weed control at 200 ppm is at least 80%.

What about the pest or weed control at 200 ppm [2] of the same compound?
Its pest or weed control at 200 ppm is at least 80%.

What about the pest or weed control at 200 ppm [3] of the same compound?
The pest or weed control at 200 ppm was at least 80%.

What does the source list for `CCSCC(O)(c1cc(C)c(/N=C/N(C)CC)cc1OC)C(F)(F)F` (centres unmarked) [E.073, N-ethyl-N′-[4-[1-(ethylsulfanylmethyl)-2,2,2-trifluoro-1-hydroxy-ethyl]-5-methoxy-2-methyl-phenyl]-N-methyl-formamidine]?
pest or weed control at 200 ppm [1]: ≥ 80%; pest or weed control at 200 ppm [3]: ≥ 80%; melting point: 81 to 83 °C

Which pest or weed control at 200 ppm [1] does the source give for `CCN(C)/C=N/c1cc(OC)c(C(O)(COC2CC(C)CC(C)C2)C(F)(F)F)cc1C` (centres unmarked) [E.006, N′-[4-[1-[(3,5-dimethylcyclohexoxy)methyl]-2,2,2-trifluoro-1-hydroxy-ethyl]-5-methoxy-2-methyl-phenyl]-N-ethyl-N-methyl-formamidine] here?
Its pest or weed control at 200 ppm is at least 80%.

And the pest or weed control at 200 ppm (Phakopsora pachyrhizi)?
Its pest or weed control at 200 ppm is at least 80%.

And the pest or weed control at 200 ppm [2]?
Its pest or weed control at 200 ppm is at least 80%.

And the pest or weed control at 200 ppm [3]?
Its pest or weed control at 200 ppm is at least 80%.

With `CCN(C)/C=N/c1cc(OC)c(C(O)(C2=COCCC2)C(F)(F)F)cc1C` (centres unmarked) [E.074, N′-[4-[1-(3,4-dihydro-2H-pyran-5-yl)-2,2,2-trifluoro-1-hydroxy-ethyl]-5-methoxy-2-methyl-phenyl]-N-ethyl-N-methyl-formamidine] as the compound, how does the pest or weed control at 200 ppm [1] read?
Its pest or weed control at 200 ppm is at least 80%.

What about the pest or weed control at 200 ppm [2] of the same compound?
Its pest or weed control at 200 ppm is at least 80%.

And the pest or weed control at 200 ppm [3]?
The pest or weed control at 200 ppm was at least 80%.

And the melting point?
Its melting point is 115 to 116.6 °C.

With `CCN(C)/C=N/c1cc(OC)c(C(O)(C2CCC(OC(C)C)CC2)C(F)(F)F)cc1C` (centres unmarked) [E.078, N-ethyl-N′-[5-methoxy-2-methyl-4-[2,2,2-trifluoro-1-hydroxy-1-(4-isopropoxycyclohexyl)ethyl]phenyl]-N-methyl-formamidine] as the compound, how does the pest or weed control at 200 ppm [1] read?
The pest or weed control at 200 ppm was at least 80%.

And the pest or weed control at 200 ppm (Phakopsora pachyrhizi)?
Its pest or weed control at 200 ppm is at least 80%.

And the pest or weed control at 200 ppm [2]?
The pest or weed control at 200 ppm was at least 80%.

And the pest or weed control at 200 ppm [3]?
The pest or weed control at 200 ppm was at least 80%.

Which results are given for `CCOCCOCC(O)(c1cc(C)c(/N=C/N(C)CC)cc1OC)C(F)(F)F` (centres unmarked) [E.020, N′-[4-[1-(2-ethoxyethoxymethyl)-2,2,2-trifluoro-1-hydroxy-ethyl]-5-methoxy-2-methyl-phenyl]-N-ethyl-N-methyl-formamidine]?
pest or weed control at 200 ppm [1]: ≥ 80%; pest or weed control at 200 ppm (Phakopsora pachyrhizi): ≥ 80%; pest or weed control at 200 ppm [2]: ≥ 80%; pest or weed control at 200 ppm [3]: ≥ 80%

Which pest or weed control at 200 ppm [1] does the source give for `CCN(C)C=Nc1cc(OC)c(C(O)(C/C(=N/OC)c2ccccc2)C(F)(F)F)cc1C` (centres unmarked) [E.059, N-ethyl-N′-[4-[(3Z)-1-hydroxy-3-methoxyimino-3-phenyl-1-(trifluoromethyl)propyl]-5-methoxy-2-methyl-phenyl]-N-methyl-formamidine] here?
Its pest or weed control at 200 ppm is at least 80%.

What about the pest or weed control at 200 ppm (Phakopsora pachyrhizi) of the same compound?
The pest or weed control at 200 ppm was at least 80%.

What about the pest or weed control at 200 ppm [2] of the same compound?
Its pest or weed control at 200 ppm is at least 80%.

What about the pest or weed control at 200 ppm [3] of the same compound?
Its pest or weed control at 200 ppm is at least 80%.

And the melting point?
The melting point was 105 to 107 °C.

With `CC#CCOCCC(O)(c1cc(C)c(/N=C/N(C)CC)cc1OC)C(F)(F)F` (centres unmarked) [E.049, N′-[4-[3-but-2-ynoxy-1-hydroxy-1-(trifluoromethyl)propyl]-5-methoxy-2-methyl-phenyl]-N-ethyl-N-methyl-formamidine] as the compound, how does the pest or weed control at 200 ppm [1] read?
Its pest or weed control at 200 ppm is at least 80%.

What about the pest or weed control at 200 ppm (Phakopsora pachyrhizi) of the same compound?
The pest or weed control at 200 ppm was at least 80%.

What about the pest or weed control at 200 ppm [2] of the same compound?
The pest or weed control at 200 ppm was at least 80%.

What about the pest or weed control at 200 ppm [3] of the same compound?
Its pest or weed control at 200 ppm is at least 80%.

Which pest or weed control at 200 ppm [1] does the source give for `CCO/N=C(\C)CC(O)(c1cc(C)c(/N=C/N(C)CC)cc1OC)C(F)(F)F` (centres unmarked) [E.057, N′-[4-[(3E)-3-ethoxyimino-1-hydroxy-1-(trifluoromethyl)butyl]-5-methoxy-2-methyl-phenyl]-N-ethyl-N-methyl-formamidine] here?
Its pest or weed control at 200 ppm is at least 80%.

And the pest or weed control at 200 ppm (Phakopsora pachyrhizi)?
Its pest or weed control at 200 ppm is at least 80%.

And the pest or weed control at 200 ppm [2]?
Its pest or weed control at 200 ppm is at least 80%.

And the pest or weed control at 200 ppm [3]?
Its pest or weed control at 200 ppm is at least 80%.

Which pest or weed control at 200 ppm [1] does the source give for `CCN(C)/C=N/c1cc(OC)c(C(O)(CCOCc2ccccc2)C(F)(F)F)cc1C` (centres unmarked) [E.051, N′-[4-[3-benzyloxy-1-hydroxy-1-(trifluoromethyl)propyl]-5-methoxy-2-methyl-phenyl]-N-ethyl-N-methyl-formamidine] here?
Its pest or weed control at 200 ppm is at least 80%.

And the pest or weed control at 200 ppm (Phakopsora pachyrhizi)?
Its pest or weed control at 200 ppm is at least 80%.

And the pest or weed control at 200 ppm [2]?
The pest or weed control at 200 ppm was at least 80%.

And the pest or weed control at 200 ppm [3]?
Its pest or weed control at 200 ppm is at least 80%.

For `CCCCOCC(O)(c1cc(C)c(/N=C/N(C)CC)cc1OC)C(F)(F)F` (centres unmarked) [E.013, N′-[4-[1-(butoxymethyl)-2,2,2-trifluoro-1-hydroxy-ethyl]-5-methoxy-2-methyl-phenyl]-N-ethyl-N-methyl-formamidine], which pest or weed control at 200 ppm [1] is on record?
Its pest or weed control at 200 ppm is at least 80%.

And the pest or weed control at 200 ppm (Phakopsora pachyrhizi)?
The pest or weed control at 200 ppm was at least 80%.

What about the pest or weed control at 200 ppm [2] of the same compound?
Its pest or weed control at 200 ppm is at least 80%.

What about the pest or weed control at 200 ppm [3] of the same compound?
The pest or weed control at 200 ppm was at least 80%.
